What was measured:
[1] = tested on: human KG-1 AML xenografts; assay: Tumor growth in KG-1 (AML) xenograft, combination with cytarabine; type: in vivo, mouse; settings: KG-1 (AML) tumors
Protocol: Female immune compromised (severe combined immunodeficiency [SCID]) mice (5–9 weeks of age; Charles River Laboratories, Wilmington, Massachusetts) were inoculated with MOLM-16, KG-1, or KMS-12-BM cells. A cell suspension in Dulbecco’s phosphate-buffered saline (DPBS) (1 × 10^8 cells/ml) was mixed 1:1 (v/v) with matrigel, and 200 μl was injected subcutaneously into the flank of each mouse. […] The treatment of tumor-bearing mice started 7 to 24 days after tumor inoculation for efficacy studies and approximately 14 to 27 days after tumor inoculation for pharmacodynamic studies.
Synergistic effects of INCB053914 in combination with INCB050465, cytarabine, or itacitinib, were assessed based on the Bliss independence model [56, 57]. In this model, the expected additive effect, with the assumption that concentration dependent effects of 2 drugs (A and B) are independent, is given by the equation EIND = EA + EB – EA •EB, where 0 ≤ EIND ≤ 1; EA and EB are the magnitudes of effects of A and B alone at given concentrations.
The interaction between effects of A and B can be described by the equation Combination Index = EIND/ EOBS, where EOBS is the observed combined effect of A + B expressed as a probability (0 ≤ EOBS ≤ 1). […]

[2] = molecular target: CLK3 (Homo sapiens, UniProt P49761); assay: Kinase selectivity panel; type: biochemical; settings: [ATP] = 1 mM
[3] = molecular target: KDR (Homo sapiens, UniProt P35968); assay: Kinase selectivity panel; type: biochemical; settings: [ATP] = 1 mM
[4] = molecular target: AKT1 (Homo sapiens, UniProt P31749); assay: Kinase selectivity panel; type: biochemical; settings: [ATP] = 1 mM
[5] = molecular target: PIM1 (Homo sapiens, UniProt P11309); assay: PIM1 AlphaScreen kinase assay; type: biochemical; settings: 1 mM ATP; read-out: Mean (SD) IC50
Protocol: (§1) The activity of INCB053914 against the PIM1 and PIM3 kinases was measured using AlphaScreen® assays (PerkinElmer, Inc., Shelton, Connecticut), and against PIM2 kinase using a time-resolved fluorescence resonance energy transfer assay (see Supporting Information, S1 File)
AlphaScreen assay. Reactions (20 μl) were carried out in white 384-well polystyrene plates (Greiner Bio-One, Kremsmünster, Austria) dotted with 0.8 μl of the compound in dimethylsulfoxide in the assay buffer (50 mM Tris, pH 7.5, 0.01% Tween-20, 5 mM MgCl2, 0.01% bovine serum albumin [BSA], 5 mM dithiothreitol) containing 0.05 μM Biotin-labeled Bcl-2–associated death promoter protein peptide substrate (AnaSpec, Fremont, California), 1 mM ATP, and 2.5 pM PIM1 (Invitrogen, Thermo Fisher Scientific, Waltham, Massachusetts), or 1.25 pM PIM3 (Millipore, Billerica, Massachusetts) enzyme. […] After the reactions were stopped, the plates were incubated for 1 hour in the dark at room temperature and then read on a PHERAstar FS plate reader (BMG Labtech, Cary, North Carolina) under reduced light.

[6] = tested on: JVM2; assay: Cell proliferation assay ([3H]-thymidine); type: cell-based; settings: JVM2 (MCL)
Protocol: (§2) The antiproliferative effects of INCB053914 on hematologic tumor cells were investigated using assays described in the Supporting Information (S2 File).
(§3) Cell proliferation assays. […] After 3 to 4 days, [^3H]-thymidine (1 μCi/well) (PerkinElmer) in PBS (10 μl) was added to the cell culture for an additional 12 hours. The incorporated radioactivity was separated by filtration with water through GF/B filters (Packard Bioscience, Meriden, Connecticut) and measured by liquid scintillation counting with a TopCount (Packard Bioscience).

[7] = tested on: HL-60; assay: Cell proliferation assay ([3H]-thymidine); type: cell-based; settings: Homo sapiens; HL-60 (AML); read-out: Mean (± SD) GI50
Protocol: as §2, §3

[8] = tested on: OPM-2; assay: Cell proliferation assay ([3H]-thymidine); type: cell-based; settings: OPM-2 (MM)
Protocol: as §2, §3

[9] = tested on: Pfeiffer; assay: Cell proliferation assay ([3H]-thymidine); type: cell-based; settings: Pfeiffer (DLBCL)
Protocol: as §2, §3

[10] = tested on: PL-21; assay: Cell proliferation assay ([3H]-thymidine); type: cell-based; settings: PL-21 (AML); read-out: Mean (± SD) GI50
Protocol: as §2, §3

[11] = tested on: Mino; assay: Cell proliferation assay ([3H]-thymidine); type: cell-based; settings: Homo sapiens; Mino (MCL); read-out: Mean (± SD) GI50
Protocol: as §2, §3

[12] = tested on: F36P; assay: Cell proliferation assay ([3H]-thymidine); type: cell-based; settings: F36P (AML)
Protocol: as §2, §3

[13] = tested on: JM-1; assay: Cell proliferation assay ([3H]-thymidine); type: cell-based; settings: JM-1 (T-ALL)
Protocol: as §2, §3

[14] = tested on: SUDHL-1; assay: Cell proliferation assay ([3H]-thymidine); type: cell-based; settings: Homo sapiens, SU-DHL-1; SUDHL-1 (DLBCL); read-out: Mean (± SD) GI50
Protocol: as §2, §3

[15] = tested on: MV-411; assay: Cell proliferation assay ([3H]-thymidine); type: cell-based; settings: MV-411 (AML)
Protocol: as §2, §3

[16] = tested on: RPMI-6666; assay: Cell proliferation assay ([3H]-thymidine); type: cell-based; settings: Homo sapiens; RPMI-6666 (HL); read-out: Mean (± SD) GI50
Protocol: as §2, §3

[17] = tested on: panel of more than 50 kinases; settings: except for RSK2
Protocol: S1 Table. Selectivity of INCB053914 for PIM kinases compared with 56 kinases representative of the kinome [ATP] = 1 mM.

[18] = molecular target: ZAP70 (Homo sapiens, UniProt P43403); assay: Kinase selectivity panel; type: biochemical; settings: [ATP] = 1 mM
[19] = molecular target: FGFR3 (Homo sapiens, UniProt P22607); assay: Kinase selectivity panel; type: biochemical; settings: [ATP] = 1 mM
[20] = molecular target: MAPKAPK2 (Homo sapiens, UniProt P49137); assay: Kinase selectivity panel; type: biochemical; settings: [ATP] = 1 mM
[21] = molecular target: PIM2 (Homo sapiens, UniProt Q9P1W9); assay: PIM2 time-resolved fluorescence resonance energy transfer assay; type: biochemical; settings: 1 mM ATP; read-out: Mean (SD) IC50
Protocol: as §1
Time-resolved fluorescence resonance energy transfer assay. Reactions (20 μl) were carried out in white 384-well polystyrene plates dotted with 0.8 μl of the compound in dimethylsulfoxide in the assay buffer (50 mM Tris, pH 7.5, 0.01% Tween-20, 5 mM MgCl2, 0.01% BSA, 5 mM dithiothreitol) containing 0.05 μM fluorescein-labeled CREBtide peptide substrate (Invitrogen), 1 mM ATP, and 1 nM PIM2 (Invitrogen). After 2 hours at 25°C, reactions were stopped with 10 μl RT-FRET dilution buffer (Invitrogen) supplemented with 30 mM EDTA and 1.5 nM LanthaScreen Tb-CREB pSer133 antibody (Invitrogen). After a 30-minute incubation at room temperature, plates were read on a PHERAstar FS plate reader (BMG Labtech).

[22] = Homo sapiens, read-out: Mean (± SD) GI50

Chain of MAPKAPK2 (P49137 whole entry): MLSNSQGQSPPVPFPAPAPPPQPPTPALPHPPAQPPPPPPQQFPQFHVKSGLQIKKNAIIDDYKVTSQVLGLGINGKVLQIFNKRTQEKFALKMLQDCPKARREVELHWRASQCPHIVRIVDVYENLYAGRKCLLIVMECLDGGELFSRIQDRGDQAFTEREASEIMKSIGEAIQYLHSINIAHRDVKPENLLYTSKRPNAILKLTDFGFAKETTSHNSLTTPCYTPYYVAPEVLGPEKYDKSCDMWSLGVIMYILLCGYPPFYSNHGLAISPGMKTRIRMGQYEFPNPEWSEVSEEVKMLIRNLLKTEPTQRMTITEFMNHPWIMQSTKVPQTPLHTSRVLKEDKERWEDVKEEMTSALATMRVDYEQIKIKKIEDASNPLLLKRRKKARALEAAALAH
Chain of CLK3 (P49761 whole entry): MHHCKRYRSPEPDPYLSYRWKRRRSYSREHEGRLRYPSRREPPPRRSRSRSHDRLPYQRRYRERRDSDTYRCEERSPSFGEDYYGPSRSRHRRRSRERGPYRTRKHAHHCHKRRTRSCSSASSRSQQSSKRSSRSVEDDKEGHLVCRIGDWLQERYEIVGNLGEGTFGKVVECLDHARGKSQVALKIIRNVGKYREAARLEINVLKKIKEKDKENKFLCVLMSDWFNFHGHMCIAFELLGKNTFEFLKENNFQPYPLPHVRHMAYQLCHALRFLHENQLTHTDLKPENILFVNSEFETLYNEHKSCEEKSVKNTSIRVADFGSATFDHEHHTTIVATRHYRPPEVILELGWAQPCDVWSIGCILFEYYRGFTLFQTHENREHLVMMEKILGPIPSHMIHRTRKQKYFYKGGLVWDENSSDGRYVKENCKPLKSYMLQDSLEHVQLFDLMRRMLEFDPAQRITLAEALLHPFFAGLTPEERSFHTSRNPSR
Chain of AKT1 (P31749 whole entry): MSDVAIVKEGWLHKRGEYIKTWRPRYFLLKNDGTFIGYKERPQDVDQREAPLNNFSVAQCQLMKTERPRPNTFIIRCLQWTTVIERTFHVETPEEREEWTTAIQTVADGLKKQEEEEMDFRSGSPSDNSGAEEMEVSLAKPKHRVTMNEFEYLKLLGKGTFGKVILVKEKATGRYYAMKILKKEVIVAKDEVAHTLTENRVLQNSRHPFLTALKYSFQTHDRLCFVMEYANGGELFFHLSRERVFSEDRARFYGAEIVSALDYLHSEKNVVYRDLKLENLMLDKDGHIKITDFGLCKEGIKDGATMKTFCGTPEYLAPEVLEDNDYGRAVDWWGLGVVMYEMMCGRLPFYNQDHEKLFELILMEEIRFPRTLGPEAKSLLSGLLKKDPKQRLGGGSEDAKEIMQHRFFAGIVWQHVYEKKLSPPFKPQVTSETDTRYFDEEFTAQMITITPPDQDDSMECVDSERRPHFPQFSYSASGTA
Chain of KDR (P35968 20-1356): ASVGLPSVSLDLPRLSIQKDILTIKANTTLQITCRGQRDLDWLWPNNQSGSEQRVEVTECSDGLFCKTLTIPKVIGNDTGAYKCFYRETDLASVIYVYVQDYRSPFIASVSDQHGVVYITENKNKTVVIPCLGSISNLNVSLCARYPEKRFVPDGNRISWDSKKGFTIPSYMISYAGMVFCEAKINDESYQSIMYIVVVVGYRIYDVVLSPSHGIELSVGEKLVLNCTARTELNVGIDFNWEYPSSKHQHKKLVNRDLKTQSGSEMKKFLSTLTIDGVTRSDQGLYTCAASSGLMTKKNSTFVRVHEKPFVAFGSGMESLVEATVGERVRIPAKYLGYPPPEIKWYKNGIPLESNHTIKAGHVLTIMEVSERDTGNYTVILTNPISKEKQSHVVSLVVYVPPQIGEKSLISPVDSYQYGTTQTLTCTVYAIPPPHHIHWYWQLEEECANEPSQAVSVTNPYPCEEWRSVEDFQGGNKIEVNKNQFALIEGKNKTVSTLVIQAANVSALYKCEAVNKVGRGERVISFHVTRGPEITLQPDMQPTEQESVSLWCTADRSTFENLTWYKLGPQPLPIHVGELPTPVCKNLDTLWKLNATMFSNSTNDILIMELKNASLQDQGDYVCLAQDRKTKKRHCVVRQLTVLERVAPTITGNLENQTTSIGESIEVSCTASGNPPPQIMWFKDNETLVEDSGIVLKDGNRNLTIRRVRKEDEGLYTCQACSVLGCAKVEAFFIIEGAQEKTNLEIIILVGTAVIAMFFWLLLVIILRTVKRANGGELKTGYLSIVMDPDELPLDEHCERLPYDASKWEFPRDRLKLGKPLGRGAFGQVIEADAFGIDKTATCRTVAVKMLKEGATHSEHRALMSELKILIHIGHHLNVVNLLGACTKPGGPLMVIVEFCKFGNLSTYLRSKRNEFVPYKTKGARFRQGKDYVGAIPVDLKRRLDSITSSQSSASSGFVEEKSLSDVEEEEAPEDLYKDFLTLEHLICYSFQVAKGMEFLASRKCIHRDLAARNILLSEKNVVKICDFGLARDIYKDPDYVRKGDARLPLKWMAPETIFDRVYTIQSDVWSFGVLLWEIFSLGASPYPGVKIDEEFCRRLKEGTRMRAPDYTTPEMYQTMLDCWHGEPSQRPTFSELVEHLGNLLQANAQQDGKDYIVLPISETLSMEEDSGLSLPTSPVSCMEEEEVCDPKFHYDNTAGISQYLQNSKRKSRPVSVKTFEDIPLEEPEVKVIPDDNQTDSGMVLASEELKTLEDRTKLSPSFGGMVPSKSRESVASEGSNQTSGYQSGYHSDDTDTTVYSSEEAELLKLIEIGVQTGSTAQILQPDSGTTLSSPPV
Chain of ZAP70 (P43403 whole entry, species assumed): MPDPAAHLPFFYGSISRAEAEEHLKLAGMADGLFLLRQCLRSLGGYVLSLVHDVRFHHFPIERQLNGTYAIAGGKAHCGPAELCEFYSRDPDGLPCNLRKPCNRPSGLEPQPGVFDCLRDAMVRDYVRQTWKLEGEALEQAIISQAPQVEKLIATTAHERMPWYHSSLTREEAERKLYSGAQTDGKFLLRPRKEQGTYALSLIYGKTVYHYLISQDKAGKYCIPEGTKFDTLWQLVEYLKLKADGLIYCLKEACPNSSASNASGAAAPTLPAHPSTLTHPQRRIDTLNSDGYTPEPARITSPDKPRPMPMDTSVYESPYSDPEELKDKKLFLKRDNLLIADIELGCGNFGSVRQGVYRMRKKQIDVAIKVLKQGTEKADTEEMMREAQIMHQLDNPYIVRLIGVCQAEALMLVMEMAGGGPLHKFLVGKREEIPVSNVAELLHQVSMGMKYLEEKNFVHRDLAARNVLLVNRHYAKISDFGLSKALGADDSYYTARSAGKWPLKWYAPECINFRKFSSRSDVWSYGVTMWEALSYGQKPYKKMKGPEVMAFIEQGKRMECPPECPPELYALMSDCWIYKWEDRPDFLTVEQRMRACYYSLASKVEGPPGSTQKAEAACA
Chain of FGFR3 (P22607 23-806): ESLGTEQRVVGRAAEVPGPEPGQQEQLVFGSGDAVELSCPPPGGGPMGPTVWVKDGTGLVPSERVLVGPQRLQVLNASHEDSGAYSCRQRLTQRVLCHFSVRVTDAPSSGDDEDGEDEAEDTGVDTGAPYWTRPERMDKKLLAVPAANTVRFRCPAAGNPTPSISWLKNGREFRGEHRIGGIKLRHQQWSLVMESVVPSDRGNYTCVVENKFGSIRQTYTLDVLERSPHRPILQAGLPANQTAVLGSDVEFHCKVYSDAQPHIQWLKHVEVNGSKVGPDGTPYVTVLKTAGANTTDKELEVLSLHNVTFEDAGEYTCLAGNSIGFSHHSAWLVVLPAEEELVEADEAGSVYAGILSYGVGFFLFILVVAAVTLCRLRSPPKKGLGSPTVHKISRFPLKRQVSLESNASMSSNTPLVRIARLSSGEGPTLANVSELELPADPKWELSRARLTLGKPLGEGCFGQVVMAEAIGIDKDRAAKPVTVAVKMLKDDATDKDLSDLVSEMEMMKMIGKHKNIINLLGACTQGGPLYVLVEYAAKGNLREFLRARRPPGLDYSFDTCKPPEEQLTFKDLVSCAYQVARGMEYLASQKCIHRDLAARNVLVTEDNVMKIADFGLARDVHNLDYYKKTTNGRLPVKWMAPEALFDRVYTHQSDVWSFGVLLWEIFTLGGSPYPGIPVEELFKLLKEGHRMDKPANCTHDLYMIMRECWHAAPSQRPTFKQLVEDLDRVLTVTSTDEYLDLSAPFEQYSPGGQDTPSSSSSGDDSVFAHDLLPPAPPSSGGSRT
Chain of PIM1 (P11309 whole entry): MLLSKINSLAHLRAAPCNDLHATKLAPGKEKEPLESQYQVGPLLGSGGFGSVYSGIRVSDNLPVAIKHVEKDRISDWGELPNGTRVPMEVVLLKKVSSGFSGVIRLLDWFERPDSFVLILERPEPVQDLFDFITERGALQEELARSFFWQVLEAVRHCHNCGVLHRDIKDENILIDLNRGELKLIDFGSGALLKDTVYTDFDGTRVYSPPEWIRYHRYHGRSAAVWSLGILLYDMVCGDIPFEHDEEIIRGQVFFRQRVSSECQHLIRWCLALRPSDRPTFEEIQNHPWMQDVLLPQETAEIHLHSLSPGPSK
Chain of PIM2 (Q9P1W9 whole entry): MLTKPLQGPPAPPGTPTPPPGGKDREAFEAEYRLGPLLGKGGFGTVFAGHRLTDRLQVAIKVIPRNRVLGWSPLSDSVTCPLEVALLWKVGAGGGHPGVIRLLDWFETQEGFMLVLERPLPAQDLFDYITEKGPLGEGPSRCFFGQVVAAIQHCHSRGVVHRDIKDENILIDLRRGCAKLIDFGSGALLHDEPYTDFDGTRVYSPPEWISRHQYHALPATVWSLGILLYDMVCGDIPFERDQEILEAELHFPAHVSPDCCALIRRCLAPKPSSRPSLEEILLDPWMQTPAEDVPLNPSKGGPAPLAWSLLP

In the case of `C[C@H]1CN(c2c(NC(=O)c3ccc(F)c(-c4c(F)cccc4F)n3)cnc3c2CC[C@H]3O)C[C@@H](N)[C@@H]1O.O=P(O)(O)O` [INCB053914, N-((R)-4-((3R,4R,5S)-3-amino-4-hydroxy-5-methylpiperidin-1-yl)-7-hydroxy-6,7-dihydro-5H-cyclopenta[b]pyridin-3-yl)-6-(2,6-difluorophenyl)-5-fluoropicolinamide phosphate], the “tumor growth, single agent” value [1] is reported as “inhibited”, the IC50 [2] is reported as > 20000 nM and the IC50 [3] is reported as > 20000 nM. For the same molecule, the IC50 [4] was > 20000 nM, the IC50 [5] was 0.24 nM and the GI50 ([6]; Homo sapiens, JVM-2, read-out: Mean (± SD) GI50) was 290 ± 291 nM. For the same molecule, the “Mean (SD) maximum inhibition” value [6] was 63.0 ± 8.7%, the GI50 [7] was > 3000 nM and the GI50 [8, 22] was 123 ± 4.9 nM. For the same molecule, the “Mean (SD) maximum inhibition” value [8] was 87.5 ± 8.0%, the GI50 [9, 22] was 19.5 nM and the “Mean (SD) maximum inhibition” value [9] was 90.5 ± 6.7%. For the same molecule, the GI50 [10] was > 3000 nM, the GI50 [11] was > 3000 nM and the “Mean (SD) maximum inhibition” value [12] was 94.7 ± 2.5%. For the same molecule, the GI50 ([12]; read-out: Mean (± SD) GI50) was 76.1 ± 36.7 nM, the GI50 ([13]; Homo sapiens, JM1, read-out: Mean (± SD) GI50) was 19.5 ± 15.1 nM and the “Mean (SD) maximum inhibition” value [13] was 94.3 ± 4.9%. The GI50 [14] was > 3000 nM, the GI50 ([15]; Homo sapiens, MV4-11, read-out: Mean (± SD) GI50) was 35.2 ± 41.7 nM and the “Mean (SD) maximum inhibition” value [15] was 94.3 ± 3.9%. The GI50 [16] was > 3000 nM, the “selectivity against a panel of more than 50 kinases” value [17] was > 475 fold and the IC50 [18] was > 20000 nM. For the same molecule, the IC50 [19] was > 20000 nM, the IC50 [20] was > 20000 nM and the IC50 [21] was 30 nM.

Reference: PMC6013247, “Preclinical characterization of INCB053914, a novel pan-PIM kinase inhibitor, alone and in combination with anticancer agents, in models of hematologic malignancies” (PLoS ONE, 2018)
